Source: patent publication US20240124504A1, “AROMATIC HETEROCYCLIC COMPOUND, AND PHARMACEUTICAL COMPOSITION AND APPLICATION THEREOF” (GT APEIRON THERAPEUTICS LIMITED, priority 2020, published 2024)
Where two headings read alike, the source gives them in different places.

What was measured:
Format in all cases: biochemical
[1] = molecular target: CDK7/cyclinH/MAT1 complex (Homo sapiens, UniProt P50613); assay: In-vitro enzymatic inhibitory activity testing, CDK7 inhibition assay (Caliper EZ Reader II); conditions: CDK7/cyclinH/MAT1 6 nM, 180 min at 27° C.
Description: (§1) CDK12/CyclinK was diluted in an assay buffer (80 mM MES PH 6.5, 0.01% Tween 20, 50 ug/mL BSA, 10 mM MgCl2) to afford a corresponding enzyme solution with the 2.4 concentration. A compound was dissolved in dimethyl sulfoxide (DMSO) at a concentration of 10 mM. […] 2 ul of a test compound solution was mixed with 5 ul of the enzyme solution; after incubation for 10 min, 5 ul of the polypeptide substrate and ATP mixed solution was added; incubation was carried out for 180 min at 27° C.; and then, the reaction was terminated by adding 4 uL of EDTA with a concentration of 120 mM to each sample. […] A CDK9/cyclinT1 complex (8 nM) and a “5-FAM-CDK9tide” peptide substrate (2 IM, synthetic fluorophore-labeled peptide with the following sequence: 5-FAM-GSRTPMY-NH2, wherein 5-FAM was as defined above and NH2 represented C-terminal amide) were used for a CDK9 inhibition assay. […] A CDK2/cyclinE1 complex (0.5 nM) and “5-FAM-CDK7tide” (2 μM) as defined above were used for CDK2 inhibition assay.
(§2) A reaction mixture was analyzed on Caliper EZ Reader II by electrophoretic separation of a fluorogenic substrate and a phosphorylated product. Data were calculated by using GraphPad Prism version 6.0, and IC50 values were adjusted and obtained by using a nonlinear regression model of a dose response curve.

[2] = molecular target: T1, CDK12 (aa686-1082)/cyclinK complex (Homo sapiens, UniProt Q9NYV4); assay: In-vitro enzymatic inhibitory activity testing, CDK12 inhibition assay (Caliper EZ Reader II); conditions: 180 min at 27° C.
T1 construct: A CDK12 (aa686-1082)/cyclinK complex (50 nM)
Description: An assay was carried out in a U-bottom 384-well plate (coming, 4512#), and the reaction temperature was 27° C. CDK7/CyclinH was diluted in an assay buffer (20 mM MES PH 6.75, 0.01% Tween 20, 50 ug/mL BSA, 6 mM MgCl2) to afford a corresponding enzyme solution with the 2.4× concentration. CDK2/CyclinE1 was diluted in an assay buffer (20 mM MES PH 6.75, 0.01% Tween 20, 50 ug/mL BSA, 6 mM MgCl2) to afford a corresponding enzyme solution with the 2.4× concentration. CDK9/CyclinT1 was diluted in an assay buffer (20 mM MES PH 6.75, 0.01% Tween 20, 50 ug/mL BSA, 10 mM MgCl2) to afford a corresponding enzyme solution with the 2.4× concentration. CDK12/CyclinK was diluted in an assay buffer (80 mM MES PH 6.5, 0.01% Tween 20, 50 ug/mL BSA, 10 mM MgCl2) to afford a corresponding enzyme solution with the 2.4 concentration. A compound was dissolved in dimethyl sulfoxide (DMSO) at a concentration of 10 mM. During use, the compound was diluted with DMSO into 10 concentration gradients from 25 nM to 500 uM, and respectively diluted by 8.3 folds in the assay buffer to afford a compound solution with a 6× concentration. A polypeptide substrate and ATP were diluted in the assay buffer to afford a polypeptide substrate and ATP mixed solution with a 2.4× concentration. 2 ul of a test compound solution was mixed with 5 ul of the enzyme solution; after incubation for 10 min, 5 ul of the polypeptide substrate and ATP mixed solution was added; incubation was carried out for 180 min at 27° C.; and then, the reaction was terminated by adding 4 uL of EDTA with a concentration of 120 mM to each sample. […]. Specifically, a CDK7/cyclinH/MAT1 complex (6 nM) and a “5-FAMCD K 7 tide” peptide substrate (2 μM, synthetic fluorophore-labeled peptide with the following sequence: 5-FAM-[…], wherein “5-FAM” refers to 5-carboxyfluorescein) were used for a CDK7 inhibition assay. A CDK9/cyclinT1 complex (8 nM) and a “5-FAM-CDK9tide” peptide substrate (2 IM, synthetic fluorophore-labeled peptide with the following sequence: 5-FAM-GSRTPMY-NH2, wherein 5-FAM was as defined above and NH2 represented C-terminal amide) were used for a CDK9 inhibition assay. A CDK12 (aa686-1082)/cyclinK complex (50 nM) and “5-FAM-CDK9tide” (2 μM) as defined above were used for a CDK12 inhibition assay. A CDK2/cyclinE1 complex (0.5 nM) and “5-FAM-CDK7tide” (2 μM) as defined above were used for CDK2 inhibition assay.
as §2

CDK2/cyclinE1 complex = CDK2/cyclinE1 complex (Homo sapiens, UniProt P24941); assay: In-vitro enzymatic inhibitory activity testing, CDK2 inhibition assay (Caliper EZ Reader II); conditions: CDK2/cyclinE1 0.5 nM, 180 min at 27° C.
Description: CDK12/CyclinK was diluted in an assay buffer (80 mM MES PH 6.5, 0.01% Tween 20, 50 ug/mL BSA, 10 mM MgCl2) to afford a corresponding enzyme solution with the 2.4 concentration. […] A CDK9/cyclinT1 complex (8 nM) and a “5-FAM-CDK9tide” peptide substrate (2 IM, synthetic fluorophore-labeled peptide with the following sequence: 5-FAM-GSRTPMY-NH2, wherein 5-FAM was as defined above and NH2 represented C-terminal amide) were used for a CDK9 inhibition assay. […] A CDK2/cyclinE1 complex (0.5 nM) and “5-FAM-CDK7tide” (2 μM) as defined above were used for CDK2 inhibition assay.
as §2

CDK9/cyclinT1 complex = CDK9/cyclinT1 complex (Homo sapiens, UniProt P50750); assay: In-vitro enzymatic inhibitory activity testing, CDK9 inhibition assay (Caliper EZ Reader II); conditions: CDK9/cyclinT1 8 nM, 180 min at 27° C.
Description: as §1, §2

[3] = CDK12/cyclinK 50 nM, read-out: CDK12 IC50

Sequence of CDK7/cyclinH/MAT1 complex (P50613 whole entry, species assumed): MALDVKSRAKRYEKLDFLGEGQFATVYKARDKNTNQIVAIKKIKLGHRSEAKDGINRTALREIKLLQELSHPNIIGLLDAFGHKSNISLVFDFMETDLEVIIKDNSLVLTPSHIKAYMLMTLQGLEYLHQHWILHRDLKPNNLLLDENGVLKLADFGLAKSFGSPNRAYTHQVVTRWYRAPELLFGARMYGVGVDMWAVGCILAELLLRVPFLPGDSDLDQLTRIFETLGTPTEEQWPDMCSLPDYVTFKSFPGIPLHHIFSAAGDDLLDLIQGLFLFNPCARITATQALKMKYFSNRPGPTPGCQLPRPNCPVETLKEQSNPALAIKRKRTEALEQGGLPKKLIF
Sequence of CDK7/cyclinH/MAT1 complex (P51946 whole entry partner, species assumed): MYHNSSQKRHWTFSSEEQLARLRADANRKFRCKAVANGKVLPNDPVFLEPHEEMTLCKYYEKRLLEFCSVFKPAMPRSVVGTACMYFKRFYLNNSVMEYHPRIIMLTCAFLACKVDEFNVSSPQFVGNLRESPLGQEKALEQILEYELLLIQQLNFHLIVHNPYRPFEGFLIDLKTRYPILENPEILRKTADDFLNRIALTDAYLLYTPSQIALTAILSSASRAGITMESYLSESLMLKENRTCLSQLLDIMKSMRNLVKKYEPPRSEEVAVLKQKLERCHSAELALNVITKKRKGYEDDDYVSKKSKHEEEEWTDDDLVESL
Sequence of CDK7/cyclinH/MAT1 complex (P51948 whole entry partner, species assumed): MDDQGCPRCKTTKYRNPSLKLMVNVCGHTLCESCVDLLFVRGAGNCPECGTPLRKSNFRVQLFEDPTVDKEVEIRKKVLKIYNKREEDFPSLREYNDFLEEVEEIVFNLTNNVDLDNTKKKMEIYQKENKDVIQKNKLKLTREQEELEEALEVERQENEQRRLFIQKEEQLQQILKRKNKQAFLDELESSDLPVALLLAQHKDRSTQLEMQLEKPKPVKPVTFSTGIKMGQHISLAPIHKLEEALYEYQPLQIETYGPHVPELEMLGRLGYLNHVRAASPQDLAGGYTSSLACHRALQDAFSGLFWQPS
Sequence of CDK9/cyclinT1 complex (P50750 whole entry, species assumed): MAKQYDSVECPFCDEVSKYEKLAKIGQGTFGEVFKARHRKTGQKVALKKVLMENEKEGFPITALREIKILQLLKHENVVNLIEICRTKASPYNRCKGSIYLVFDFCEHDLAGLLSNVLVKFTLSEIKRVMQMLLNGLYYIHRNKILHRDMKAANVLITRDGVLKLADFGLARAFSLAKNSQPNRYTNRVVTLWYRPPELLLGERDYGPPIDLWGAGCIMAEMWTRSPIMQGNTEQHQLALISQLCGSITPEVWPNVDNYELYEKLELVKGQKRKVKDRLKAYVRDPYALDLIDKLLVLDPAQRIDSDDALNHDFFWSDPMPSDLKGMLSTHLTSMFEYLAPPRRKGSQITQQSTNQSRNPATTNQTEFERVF
Sequence of CDK9/cyclinT1 complex (O60563 whole entry partner, species assumed): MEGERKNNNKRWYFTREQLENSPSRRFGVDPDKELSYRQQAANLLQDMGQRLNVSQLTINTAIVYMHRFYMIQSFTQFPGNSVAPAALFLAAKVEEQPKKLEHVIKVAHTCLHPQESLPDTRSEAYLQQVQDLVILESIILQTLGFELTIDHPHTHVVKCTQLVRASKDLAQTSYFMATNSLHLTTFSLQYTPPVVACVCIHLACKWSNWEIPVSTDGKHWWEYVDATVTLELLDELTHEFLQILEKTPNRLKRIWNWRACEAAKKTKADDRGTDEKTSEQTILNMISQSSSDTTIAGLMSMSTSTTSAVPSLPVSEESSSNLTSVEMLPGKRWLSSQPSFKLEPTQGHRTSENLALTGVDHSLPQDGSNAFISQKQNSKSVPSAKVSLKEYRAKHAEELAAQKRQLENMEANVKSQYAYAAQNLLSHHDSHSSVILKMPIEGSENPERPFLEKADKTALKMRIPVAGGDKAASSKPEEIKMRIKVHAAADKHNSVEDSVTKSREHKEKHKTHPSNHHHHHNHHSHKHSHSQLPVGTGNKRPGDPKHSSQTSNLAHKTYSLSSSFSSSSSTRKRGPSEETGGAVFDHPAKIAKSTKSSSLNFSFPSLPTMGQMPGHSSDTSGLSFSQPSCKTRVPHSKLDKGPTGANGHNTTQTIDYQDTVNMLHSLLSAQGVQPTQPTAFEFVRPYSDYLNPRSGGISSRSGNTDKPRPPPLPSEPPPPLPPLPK
T1 sequence (Q9NYV4 686-1082, species assumed): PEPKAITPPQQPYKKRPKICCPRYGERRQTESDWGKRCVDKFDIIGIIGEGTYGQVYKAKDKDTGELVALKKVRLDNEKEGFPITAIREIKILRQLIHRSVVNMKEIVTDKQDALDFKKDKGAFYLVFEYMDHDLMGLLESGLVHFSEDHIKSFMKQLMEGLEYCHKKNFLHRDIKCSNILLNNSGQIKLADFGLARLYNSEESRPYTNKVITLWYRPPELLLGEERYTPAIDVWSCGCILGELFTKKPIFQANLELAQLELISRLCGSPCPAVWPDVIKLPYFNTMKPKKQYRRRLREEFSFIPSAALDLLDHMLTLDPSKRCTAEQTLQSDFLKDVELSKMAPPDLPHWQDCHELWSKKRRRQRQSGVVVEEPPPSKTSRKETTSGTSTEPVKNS
T1 sequence (O75909 whole entry partner, species assumed, the tested form may be a part): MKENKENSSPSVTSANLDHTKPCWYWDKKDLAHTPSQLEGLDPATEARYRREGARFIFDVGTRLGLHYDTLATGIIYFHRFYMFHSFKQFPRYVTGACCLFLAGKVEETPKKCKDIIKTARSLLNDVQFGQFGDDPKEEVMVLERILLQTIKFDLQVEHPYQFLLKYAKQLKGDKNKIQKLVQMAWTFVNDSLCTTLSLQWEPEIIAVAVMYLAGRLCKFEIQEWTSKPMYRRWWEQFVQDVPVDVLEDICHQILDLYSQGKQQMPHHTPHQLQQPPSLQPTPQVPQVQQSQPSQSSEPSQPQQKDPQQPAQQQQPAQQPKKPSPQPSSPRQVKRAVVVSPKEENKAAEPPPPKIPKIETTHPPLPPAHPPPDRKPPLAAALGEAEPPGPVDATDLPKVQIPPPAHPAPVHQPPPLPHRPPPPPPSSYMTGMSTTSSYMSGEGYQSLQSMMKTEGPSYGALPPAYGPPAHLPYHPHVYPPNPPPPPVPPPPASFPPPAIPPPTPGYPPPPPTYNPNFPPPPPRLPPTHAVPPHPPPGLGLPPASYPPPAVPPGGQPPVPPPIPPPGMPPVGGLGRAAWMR

| IC50 [1] | IC50 [2, 3] | IC50 (CDK2/cyclinE1 complex) | IC50 (CDK9/cyclinT1 complex) | Compound | IC50 ([2]; CDK12 IC50, CDK12/cyclinK 50 nM) |
| --- | --- | --- | --- | --- | --- |
| 20 to 200 nM |  |  |  | CP(C)(=O)c1cccc2c(-c3nc(N[C@@H]4CC(F)(F)C[C@@H]4O)ncc3C(F)(F)F)c[nH]c12 (relative stereo) [Compound 187, (3-(2-(cis-4,4-difluoro-2-hydroxycyclopentylamino)-5-(trifluoromethyl)pyrimidin-4-yl)-1H-indole-7-yl)dimethylphosphine oxide] |  |
| < 20 nM |  |  |  | CP(C)(=O)c1cccc2c(-c3nc(N[C@@H]4CC(F)(F)C[C@H]4O)ncc3C(F)(F)F)c[nH]c12 (relative stereo) [Compound 188, (3-(2-(trans-4,4-difluoro-2-hydroxycyclopentylamino)-5-(trifluoromethyl)pyrimidin-4-yl)-1H-indole-7-yl)dimethylphosphine oxide] |  |
| 20 to 200 nM | > 50000 nM | > 50000 nM | > 50000 nM | CN(C)CC1CCCC1Nc1ncc(C(F)(F)F)c(-c2c[nH]c3c(P(C)(C)=O)cccc23)n1 (single isomer, unassigned) [Compound 136] |  |
| 20 to 200 nM | > 50000 nM | 5000 to 50000 nM | > 50000 nM | CP(C)(=O)c1cccc2c(-c3nc(NCC(O)C4CCC4)ncc3C(F)(F)F)c[nH]c12 (single isomer, unassigned) [Compound 139] |  |
| 20 to 200 nM | > 50000 nM | 5000 to 50000 nM | > 50000 nM | CP(C)(=O)c1cccc2c(-c3nc(NCC(O)C4CCC4)ncc3C(F)(F)F)c[nH]c12 (single isomer, unassigned) [Compound 140] |  |
| 20 to 200 nM |  |  |  | C[C@@H](CO)Nc1ncc(C(F)(F)F)c(-c2c[nH]c3nc(C4CCCCO4)ccc23)n1 (single isomer, unassigned) [Compound 183] |  |
| 20 to 200 nM |  |  |  | C[C@@H](CO)Nc1ncc(C(F)(F)F)c(-c2c[nH]c3nc(C4CCCCO4)ccc23)n1 (single isomer, unassigned) [Compound 184] |  |
| 20 to 200 nM |  |  |  | CP(C)(=O)c1cccc2c(-c3nc(NC4CC(F)(F)CC4O)ncc3C(F)(F)F)c[nH]c12 (single isomer, unassigned) [Compound 189] |  |
| 20 to 200 nM |  |  |  | CP(C)(=O)c1cccc2c(-c3nc(NC4CC(F)(F)CC4O)ncc3C(F)(F)F)c[nH]c12 (single isomer, unassigned) [Compound 190] |  |
| 20 to 200 nM |  | 5000 to 50000 nM |  | CP(C)(=O)c1cccc2c(-c3nc(NC4CC(F)(F)CC4O)ncc3C(F)(F)F)c[nH]c12 (single isomer, unassigned) [Compound 192] |  |
| < 20 nM |  |  |  | CP(C)(=O)c1cccc2c(-c3nc(NC4CCC[C@H]4CN)ncc3C(F)(F)F)c[nH]c12 (stereo in doubt) [Compound 131, (3-(2-((cis-2-(aminomethyl)cyclopentyl)amino)-5-(trifluoromethyl)pyrimidin-4-yl)-1H-indole-7-yl)dimethylphosphine oxide] |  |
| < 20 nM |  |  |  | CP(C)(=O)c1cccc2c(-c3nc(NC4CCC[C@@H]4CN)ncc3C(F)(F)F)c[nH]c12 (stereo in doubt) [Compound 132, (3-(2-((trans-2-(aminomethyl)cyclopentyl)amino)-5-(trifluoromethyl)pyrimidin-4-yl)-1H-indole-7-yl)dimethylphosphine oxide] |  |
| < 20 nM |  |  |  | CN(C)C[C@@H]1CCCC1Nc1ncc(C(F)(F)F)c(-c2c[nH]c3c(P(C)(C)=O)cccc23)n1 (stereo in doubt) [Compound 133, (3-(2-((cis-2-((dimethylamino)methyl)cyclopentyl)amino)-5-(trifluoromethyl)pyrimidin-4-yl)-1H-indole-7-yl)dimethylphosphine oxide] |  |
| < 20 nM |  |  |  | CN(C)C[C@H]1CCCC1Nc1ncc(C(F)(F)F)c(-c2c[nH]c3c(P(C)(C)=O)cccc23)n1 (stereo in doubt) [Compound 134, (3-(2-((trans-2-((dimethylamino)methyl)cyclopentyl)amino)-5-(trifluoromethyl)pyrimidin-4-yl)-1H-indole-7-yl)dimethylphosphine oxide] |  |
| 20 to 200 nM | 5000 to 50000 nM | 5000 to 50000 nM | 5000 to 50000 nM | FC(F)(F)c1cnc(NC2CCCC3(CCCN3)C2)nc1-c1c[nH]c2nc(N3CCOCC3)ccc12 (centres unmarked) [Compound 38, N-(4-(6-morpholinyl-1H-pyrrolo[2,3-b]pyridin-3-yl)-5-(trifluoromethyl)pyrimidin-2-yl)-1-azaspiro[4.5]decan-7-amine] |  |
| 20 to 200 nM | 5000 to 50000 nM | 5000 to 50000 nM | 5000 to 50000 nM | FC(F)(F)c1cnc(NC2CCC3(CCNCC3)C2)nc1-c1c[nH]c2nc(N3CCOCC3)ccc12 (centres unmarked) [Compound 42, N-(4-(6-morpholinyl-1H-pyrrolo[2,3-b]pyridin-3-yl)-5-(trifluoromethyl)pyrimidin-2-yl)-8-azaspiro[4.5]decan-2-amine] |  |
| 20 to 200 nM | 5000 to 50000 nM | 5000 to 50000 nM | 5000 to 50000 nM | FC(F)(F)c1cnc(N[C@@H]2CCC[C@@H]3CNC[C@@H]32)nc1-c1c[nH]c2nc(N3CCOCC3)ccc12 [Compound 45, (3aR,4R,7aS)-N-(4-(6-morpholinyl-1H-pyrrolo[2,3-b]pyridin-3-yl)-5-(trifluoromethyl)pyrimidin-2-yl)octahydro-1H-isoindole-4-amine] |  |
| 20 to 200 nM |  |  |  | CP(C)(=O)c1cccc2c(-c3nc(NCC4(O)CCCCCC4)ncc3C(F)(F)F)c[nH]c12 [Compound 152] |  |
| 20 to 200 nM |  |  |  | CP(C)(=O)c1cccc2c(-c3nc(N[C@H](CO)C4CCCCC4)ncc3C(F)(F)F)c[nH]c12 [Compound 169, (S)-(3-(2-((1-cyclohexyl-2-hydroxyethyl)amino)-5-(trifluoromethyl)pyrimidin-4-yl)-1H-indole-7-yl)dimethylphosphine oxide] |  |
| 20 to 200 nM |  |  |  | CCCC[C@H](CO)Nc1ncc(C(F)(F)F)c(-c2c[nH]c3c(P(C)(C)=O)cccc23)n1 [Compound 170, (R)-(3-(2-((1-hydroxyhexan-2-yl)amino)-5-(trifluoromethyl)pyrimidin-4-yl)-1H-indole-7-yl)dimethylphosphine oxide] |  |
| 20 to 200 nM |  |  |  | C[C@@H](CO)Nc1ncc(C(F)(F)F)c(-c2n[nH]c3c(P(C)(C)=O)cccc23)n1 [Compound 193, (S)-(3-(2-((1-hydroxypropan-2-yl)amino)-5-(trifluoromethyl)pyrimidin-4-yl)-1H-indazol-7-yl)dimethylphosphine oxide] |  |
|  |  |  |  | CN[C@@H]1C[C@H]2O[C@@](C)([C@@H]1OC)n1c3ccccc3c3c4c(c5c6ccccc6n2c5c31)C(=O)NC4 [Staurosporine, staurosporine, reference compound] | 200 to 5000 nM |
